What all share (test): DTP human tumour cell line panel, 48 h
In assay [1] the test system is A549 NSCLC.
Assay [2] relates to CCRF-CEM leukemia.
Assay [3] deals with EKVX NSCLC.
In assay [4] the test system is HCC-2998 colon.
For assay [5], the system named is HCT-116 colon.
Assay [6] concerns K-562 leukemia.
The test system of assay [7] is KM12 colon.
In assay [8] the test system is M14 melanoma.
For assay [9], the system named is MCF7 breast.
Assay [10] has as its system MOLT-4 leukemia.
Assay [11] concerns OVCAR-4 ovarian.
For assay [12], the system named is OVCAR-5 ovarian.
Assay [13] deals with SF-295 CNS.
The test system of assay [14] is SNB-19 CNS.
Assay [15] has as its system SNB-75 CNS.
Assay [16] has as its system SW-620 colon.
Assay [17] has as its system UACC-62 melanoma.
Assay [18] has as its system IGROV1 ovarian.
Assay [19] has as its system SK-MEL-5 melanoma.
Assay [20] relates to HL-60(TB) leukemia.

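Step 1: Grow cells in 96-well plates. Step 2: Expose to compound for 48 hours at 5 concentrations. Step 3: Interpolate endpoints linearly; if unreached, use highest concentration. Definition used: TGI = concentration required for complete inhibition of growth.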

Consider `COc1ccc(/C=N/n2c(Cc3ccccc3)n[nH]c2=O)cc1`, for which the TGI in [1], in assay [2], in [3], in [4], in assay [5] and in assay [6] was more than 100 µM each time. Further, the TGI in assay [7], in [8], in assay [9], in assay [10], in [11] and in [12] was more than 100 µM in each case. Moreover, the TGI in assay [13], in assay [14], in assay [15], in [16] and in [17] was more than 100 µM in each case.

Take `CC1(CCCCO)C=CC(S(=O)(=O)c2ccccc2)CC1` (stereo not drawn): the TGI in [1] was 13.6 µM; in assay [2], 11.2 µM; in [3], 18 µM; in assay [4], 19.6 µM; in assay [5], 12.6 µM; in assay [18], 12.1 µM. Further, the concentration for total growth inhibition (TGI) in assay [6] came to 11.6 µM; in [7] it was 8.45 µM; in [8] it was 12.2 µM; in assay [9], 11.3 µM; in assay [10] it was 14.9 µM; in [11], 22.8 µM. The TGI came to 17.5 µM in assay [12]; 24.4 µM in [13]; 15.4 µM in assay [19]; 26.6 µM in [14]; 13.3 µM in [15]; 20.6 µM in assay [16]. The concentration for total growth inhibition (TGI) in assay [17] turned out to be 18.3 µM.

Take `Cn1c(=O)n2n(c1=O)C(S(=O)c1ccccc1)C2` (stereo not drawn): the TGI in assay [1], in [2], in assay [3], in [4], in [5] and in assay [18] was more than 100 µM throughout. Besides, the concentration for total growth inhibition (TGI) in assay [6], in assay [7], in assay [8], in assay [9], in assay [10] and in assay [11] was more than 100 µM in each case. Also, the TGI in assay [12], in assay [13], in assay [19], in assay [14], in assay [15] and in assay [16] was more than 100 µM throughout. In assay [17], this compound registered a TGI of more than 100 µM.

In the case of `N#C[C@H](C(=O)c1ccccc1F)c1nc2ccccc2[nH]1`, the TGI in [1], in assay [2], in assay [3], in assay [4], in assay [5] and in assay [18] was more than 100 µM throughout. In addition, the TGI in [6], in [7], in [8], in [9], in assay [10] and in [11] was more than 100 µM throughout. The TGI in assay [12], in assay [13], in assay [14], in [15], in assay [16] and in [17] was more than 100 µM in each case.

Consider `O=C1NC2=NN=C(c3ccc(Br)cc3)CN2NC12c1ccccc1-c1ccccc12`, for which the TGI in [1], in [3], in [4], in assay [5], in [18] and in assay [6] was more than 100 µM throughout. For the same compound, the TGI in assay [8], in assay [9], in assay [11], in assay [12], in [13] and in assay [19] was more than 100 µM in each case. The TGI in [14], in assay [15], in [16] and in [17] was more than 100 µM each time.

As for `Nc1ncnc2c1N=C(c1ccccc1)CC(c1ccccc1)N2` (stereo not drawn), the TGI in [1], in assay [2], in [3], in assay [4], in assay [5] and in assay [6] was more than 100 µM in each case. Besides, the TGI in assay [7], in assay [8], in assay [9], in assay [10], in assay [11] and in assay [12] was more than 100 µM in each case. The total growth inhibition concentration (TGI) in assay [13], in [14], in assay [15], in assay [16] and in assay [17] was more than 100 µM each time.

For `CC(=O)Oc1ccc(/C=C/C(=O)NCCOC(=O)/C=C/c2ccc(OC(C)=O)c(OC(C)=O)c2)cc1OC(C)=O`, the TGI in assay [1] was more than 100 µM; in assay [3], more than 100 µM; in [4], more than 100 µM; in assay [5] it was 39.2 µM; in assay [18] it was more than 100 µM; in assay [6], more than 100 µM. Further, the total growth inhibition concentration (TGI) is more than 100 µM in [7]; 74.5 µM in [8]; more than 100 µM in [9]; more than 100 µM in [10]; more than 100 µM in assay [11]; 97.6 µM in [12]. Also, the TGI was 76.7 µM in assay [13]; 47.1 µM in assay [19]; more than 100 µM in assay [14]; 79.6 µM in assay [15]; 61.8 µM in [16]; 49.1 µM in assay [17].

Regarding `Nc1c(C(=O)c2ccccc2)nnc2ccccc12`, the TGI is more than 100 µM in assay [1]; more than 100 µM in [3]; 54.4 µM in assay [4]; 71.6 µM in [5]; more than 100 µM in assay [18]; more than 100 µM in [6]. The TGI is 67.7 µM in assay [7]; more than 100 µM in assay [8]; 62.6 µM in assay [9]; more than 100 µM in assay [10]; more than 100 µM in assay [11]; more than 100 µM in assay [12]. Besides, the TGI in assay [19] is 32.7 µM; in [14], more than 100 µM; in [16], more than 100 µM; in assay [17], 45 µM.

Regarding `FC(F)(F)c1cnc(N/N=C(/c2ccccc2)c2ccccn2)c(Cl)c1`, the concentration for total growth inhibition (TGI) in assay [1] turned out to be 14.8 µM; in assay [2], 17.6 µM; in [3], 17.5 µM; in [4] it was 24.8 µM; in assay [5], 12.1 µM; in assay [18] it was 11.5 µM. The TGI in [6] was more than 100 µM; in [7], 26.3 µM; in [8] it was 15.7 µM; in [9], 6.7 µM; in [10], more than 100 µM; in assay [11], 24.8 µM. For the same compound, the TGI in assay [12] was 31.5 µM; in assay [13], 11 µM; in assay [19], 21.2 µM; in assay [14], 50.9 µM; in assay [15] it was 16 µM; in [16] it was more than 100 µM. Besides, the TGI in assay [17] was determined as 23.1 µM.

As to `O=C1c2ccccc2-n2c1nc1ccc(Cl)cc1c2=O`, the TGI was more than 100 µM in assay [1]; 13.8 µM in assay [2]; more than 100 µM in assay [3]; more than 100 µM in [4]; more than 100 µM in assay [5]; more than 100 µM in assay [18]. Also, the TGI in [6], in [7], in assay [8], in assay [9], in assay [10] and in assay [11] was more than 100 µM throughout. For the same compound, the TGI in [12] was more than 100 µM; in [13] it was more than 100 µM; in assay [19], more than 100 µM; in assay [14], more than 100 µM; in [15], 75.5 µM; in assay [16], more than 100 µM. The TGI in assay [17] is 92.7 µM.

On to `C/C(=N\Nc1nc2ccccc2n1C)c1ccc2ccccc2n1`, for which the concentration for total growth inhibition (TGI) in [1] was 16.1 µM; in assay [2], 1.67 µM; in [3], 4.3 µM; in assay [4] it was 0.9 µM; in [5] it was 7.03 µM; in assay [18], 2.74 µM. Moreover, the concentration for total growth inhibition (TGI) turned out to be 10.6 µM in assay [6]; 43.5 µM in assay [7]; 4.91 µM in assay [8]; 27.4 µM in assay [9]; 0.954 µM in [11]; 11 µM in assay [12]. In addition, the concentration for total growth inhibition (TGI) in assay [13] is 10.5 µM; in [19] it was 5.43 µM; in assay [14] it was more than 100 µM; in assay [15], 46.4 µM; in assay [16], 25.8 µM; in [17], 9.79 µM.

As to `CCCCCC(/C=C/[C@@H]1[C@@H](C(O)CCCCCC(=O)OC)C(=O)C[C@H]1O[Si](C)(C)C(C)(C)C)OCOCCOC` (stereo partly drawn), the TGI in assay [1] is more than 68.2 µM; in assay [2], more than 24.5 µM; in assay [3], 37.6 µM; in [4], more than 57 µM; in assay [5], 16.1 µM; in assay [18], 20.9 µM. Further, the concentration for total growth inhibition (TGI) in [6] was more than 52 µM; in assay [7], 16.1 µM; in assay [8] it was 37.1 µM; in assay [9], more than 47 µM; in assay [10], 4.87 µM; in [11] it was 40.9 µM. For the same compound, the TGI stood at 48 µM in assay [12]; 32.6 µM in assay [13]; 30.5 µM in assay [19]; 29 µM in assay [14]; 22.2 µM in [15]; 29.3 µM in assay [16]. This compound also registered a TGI in [17] of 27.5 µM.

As for `COc1cccc(-c2[nH]c3cc4c(cc3c(=O)c2C(=O)O)OCO4)c1`, the TGI was more than 100 µM in [1]; more than 100 µM in [2]; more than 100 µM in assay [3]; 74.6 µM in assay [4]; more than 100 µM in assay [5]; more than 100 µM in assay [18]. The TGI in [6], in assay [7], in assay [8], in assay [9], in assay [10] and in [11] was more than 100 µM throughout. The TGI in assay [12] is more than 100 µM; in [13] it was 79.4 µM; in assay [19] it was more than 100 µM; in [14], more than 100 µM; in assay [15], more than 100 µM; in [16], more than 100 µM. This compound also returned a TGI in assay [17] of more than 100 µM.

Consider `CC(=O)c1sc2c(c1O)c(=O)n(-c1ccccc1)c(=S)n2-c1ccccc1`, for which the TGI in [1], in [4], in assay [20], in assay [18], in assay [6] and in assay [7] was more than 100 µM throughout. For the same compound, the TGI in assay [8], in [9], in assay [10], in assay [11], in assay [12] and in assay [13] was more than 100 µM in each case. In addition, the TGI in [19], in assay [14], in assay [15], in assay [16] and in assay [17] was more than 100 µM in each case.

For the compound `CCCCOc1ccc(S(=O)(=O)/N=C(\N)Nc2ccc(Cl)cc2)cc1`, the TGI is 45.8 µM in assay [1]; 23.2 µM in assay [3]; 30.3 µM in assay [5]; 28.9 µM in assay [18]; 37.4 µM in assay [6]; 39.6 µM in assay [7]. The TGI was determined as 38 µM in assay [8]; 26.9 µM in assay [9]; 29.9 µM in assay [10]; 26.5 µM in assay [11]; 33.2 µM in assay [12]; 36.1 µM in [13]. For the same compound, the TGI in assay [19] was 47.8 µM; in assay [14], 33.3 µM; in [15], 36.3 µM; in [16], 32.3 µM; in [17] it was 27.1 µM.

As usually defined, the TGI is the concentration at which net growth stops. Read a low TGI as more potent growth arrest.

Values taken from PubChem BioAssay (NCI).
